Data: the supplement of paper PMC10307832

Columns and labels:
Test in all cases: relative viability (nuclei count vs DMSO), 5 days (fraction); higher = more cells survive
[1] = compound: C1COCCN1CC2=CC(=O)C(=CO2)OCCCCCSC3=C4C=CC(=CC4=NC=C3)C(F)(F)F [EHT 1864] + CC1(C)CCC(c2ccc(Cl)cc2)=C(CN2CCN(c3ccc(C(=O)NS(=O)(=O)c4ccc(N[C@H](CCN5CCOCC5)CSc5ccccc5)c(S(=O)(=O)C(F)(F)F)c4)cc3)CC2)C1 [Navitoclax] (partner 0.5 µM)
In short: (§1)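 Cells from lung cancer lines were seeded into 1536-well plates and, one day later, dosed by pin tool. Treatments were either a single drug or a fixed dose of an anchor drug with five library-drug doses (not always all listed) in √10 steps. After 5 days, nuclei were stained in a one-step fixation (final 0.05% Triton X-100, 1% formaldehyde, 1 ug/ml Hoechst) and counted on 4× images, and relative viability is the treated-to-vehicle nuclei ratio, as the median of duplicate plates.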

[2] = compound: C1COCCN1CC2=CC(=O)C(=CO2)OCCCCCSC3=C4C=CC(=CC4=NC=C3)C(F)(F)F [EHT 1864] + C[C@@H](Oc1cc(-c2cnn(C3CCNCC3)c2)cnc1N)c1c(Cl)ccc(F)c1Cl [Crizotinib] (partner 1 µM)
In short: as §1

[3] = compound: C1COCCN1CC2=CC(=O)C(=CO2)OCCCCCSC3=C4C=CC(=CC4=NC=C3)C(F)(F)F [EHT 1864] + Cc1cc(Nc2cc(N3CCN(C)CC3)nc(Sc3ccc(NC(=O)C4CC4)cc3)n2)n[nH]1 [Tozasertib] (partner 0.1 µM)
In short: as §1

[4] = compound: C1COCCN1CC2=CC(=O)C(=CO2)OCCCCCSC3=C4C=CC(=CC4=NC=C3)C(F)(F)F [EHT 1864] + O=C(CCCCCCC(=O)Nc1ccccc1)NO [Vorinostat] (partner 1 µM)
In short: as §1

Cell Line	relative viability ([1]; first compound 0.04 µM)	relative viability ([1]; first compound 0.1265 µM)	relative viability ([1]; first compound 0.4 µM)	relative viability ([1]; first compound 4 µM)	relative viability ([2]; first compound 0.04 µM)	relative viability ([2]; first compound 0.1265 µM)	relative viability ([2]; first compound 0.4 µM)	relative viability ([2]; first compound 4 µM)	relative viability ([3]; first compound 0.04 µM)	relative viability ([3]; first compound 0.1265 µM)	relative viability ([3]; first compound 0.4 µM)	relative viability ([3]; first compound 1.265 µM)	relative viability ([3]; first compound 4 µM)	relative viability ([4]; first compound 0.04 µM)	relative viability ([4]; first compound 0.1265 µM)	relative viability ([4]; first compound 0.4 µM)	relative viability ([4]; first compound 1.265 µM)	relative viability ([4]; first compound 4 µM)	relative viability ([1]; first compound 1.265 µM)	relative viability ([2]; first compound 1.265 µM)
ChaGo-K-1	1.07	0.938	0.802	1.07	1.14	1.15	1.12	1.01	0.215	0.221	0.228	0.207	0.204	0.785	0.76	0.72	0.811	0.76	–	–
NCI-H1650	1.12	0.783	1.14	1.18	0.857	0.653	0.947	1.15	–	–	0.385	0.355	0.242	0.529	0.54	0.592	0.623	0.521	1.4	0.911
LOU-NH91	0.693	0.652	0.789	0.567	0.764	0.73	0.741	0.758	0.614	0.551	0.67	0.609	0.69	0.924	0.799	1.02	0.876	0.856	0.694	0.733
HOP-62	0.915	–	1.02	1.22	0.944	–	0.952	0.996	0.391	–	0.376	0.333	0.374	0.631	–	0.616	0.676	0.667	0.977	0.784
NCI-H1915	0.797	–	0.764	0.792	0.86	–	0.922	0.887	0.413	–	0.41	0.406	0.392	0.501	–	0.517	0.478	0.564	0.768	0.87
NCI-H3122	1.06	1.01	0.987	0.987	0.327	0.278	0.276	0.245	0.358	0.275	0.398	0.398	0.392	0.934	0.76	0.899	1.12	0.992	1.06	0.315
NCI-H1651	1.03	0.947	1.1	0.91	0.865	0.798	0.826	0.843	0.631	0.705	0.549	0.479	0.523	0.55	0.541	0.554	0.561	0.599	1	0.801
NCI-H838	1.08	1.04	1.14	1.14	0.74	0.724	0.911	0.802	0.244	0.227	0.26	0.241	0.223	0.713	0.668	0.74	0.723	0.727	1.08	0.826
NCI-H596	1.1	0.892	1.08	0.888	1.02	1.04	0.931	0.973	0.843	0.733	0.869	1.06	0.754	0.724	0.476	0.694	0.577	0.657	0.812	0.896
